# Laboratory results reported in PubChem BioAssay (NCI).
#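 Step 1: Grow cells in 96-well plates. Step 2: Expose to compound for 48 hours at 5 concentrations. Step 3: Interpolate endpoints linearly; if unreached, use highest concentration. Abbreviation: GI50, concentration required for 50% inhibition of growth. At the TGI there is no net growth.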
# Key:
# Test in all cases: growth of human tumour cells (NCI), 48 h
# [1] = test system: HT29 colon
# [2] = test system: SK-MEL-2 melanoma
# [3] = test system: A498 renal
# [4] = test system: IGROV1 ovarian
# [5] = test system: HCT-15 colon
# [6] = test system: HCC-2998 colon
# [7] = test system: EKVX NSCLC
# [8] = test system: CAKI-1 renal
# [9] = test system: HOP-92 NSCLC
# [10] = test system: HS 578T breast
Compound,TGI [1],TGI [2],TGI [3],TGI [4],TGI [5],TGI [6],TGI [7],TGI [8],TGI [9],GI50 [1],GI50 [2],GI50 [4],GI50 [9],GI50 [5],GI50 [6],GI50 [8],GI50 [10],TGI [10],GI50 [7],GI50 [3]
Cc1ccccc1NC(=O)CC(=O)NNCC(=O)Nc1nnc(-c2ccccc2)s1,> 100 µM,> 100 µM,> 100 µM,> 100 µM,> 100 µM,> 100 µM,> 100 µM,> 100 µM,–,–,–,–,–,–,–,–,–,–,–,–
CCC12C=C(C(=O)OC)N3c4ccccc4C4CCN(CCC1)C2C43 (stereo unspecified),> 100 µM,> 100 µM,> 100 µM,> 100 µM,> 100 µM,> 100 µM,> 100 µM,> 100 µM,> 100 µM,–,–,–,–,–,–,–,–,–,–,–
CCCCC(C(=O)C(=O)Nc1ccccc1CC)C(=O)C(C)C (stereo unspecified),> 100 µM,> 100 µM,> 100 µM,> 100 µM,> 100 µM,> 100 µM,> 100 µM,> 100 µM,> 100 µM,–,–,–,–,–,–,–,–,–,–,–
C=CCN(CC=C)Cc1c[nH]c2ccccc12,> 100 µM,38.3 µM,–,42.6 µM,> 100 µM,72.7 µM,–,> 100 µM,> 100 µM,41.9 µM,15.3 µM,16 µM,> 100 µM,32.8 µM,27.8 µM,19.8 µM,–,–,–,–
CC(=O)O[C@H]1C[C@@H]2[C@@]3(C)CC[C@H]4C[C@@]4(C)[C@@H]3CC[C@@]2(C)C2=CCC3=C(COC3=O)[C@]21C,> 100 µM,> 100 µM,–,78 µM,56.1 µM,51.4 µM,35 µM,–,35 µM,31.6 µM,36.3 µM,26.5 µM,16.7 µM,21 µM,23.7 µM,–,10.2 µM,27.3 µM,17.6 µM,–
O=[N+]([O-])c1ccc(/C=C(/c2ccc([N+](=O)[O-])o2)S(=O)(=O)c2ccccc2)cc1,> 100 µM,> 100 µM,–,> 100 µM,88.7 µM,–,–,> 100 µM,> 100 µM,–,–,–,–,–,–,–,–,> 100 µM,–,–
CN(C)CCCC1(c2ccc(F)cc2)OCc2cc(-c3csc4ccccc34)ccc21 (stereo unspecified),3.46 µM,3.58 µM,–,2.96 µM,3.07 µM,3.14 µM,2.89 µM,3.05 µM,2.95 µM,1.55 µM,1.83 µM,1.35 µM,1.4 µM,1.64 µM,1.65 µM,1.62 µM,1.74 µM,3.76 µM,1.51 µM,–
ON1CCc2c([nH]c3ccccc23)C1c1ccc(Cl)cc1 (stereo unspecified),40.1 µM,64.5 µM,> 100 µM,–,–,72.3 µM,> 100 µM,–,41.1 µM,–,–,–,–,–,–,–,–,–,–,–
N#C[Se]CCN1C(=O)c2ccccc2C1=O,8.29 µM,19.1 µM,–,6.12 µM,14.7 µM,15.2 µM,10.3 µM,8.62 µM,3.12 µM,2.84 µM,3.71 µM,2.02 µM,1.37 µM,3.58 µM,3.87 µM,2.94 µM,1.43 µM,6.09 µM,2.88 µM,–
O=C(/C=C(\[O-])c1ccccc1)CCCCCCC(=O)/C=C(\[O-])c1ccccc1.O=C(/C=C(\[O-])c1ccccc1)CCCCCCC(=O)/C=C(\[O-])c1ccccc1.O=C(/C=C(\[O-])c1ccccc1)CCCCCCC(=O)/C=C(\[O-])c1ccccc1.[Y+3].[Y+3],> 50 µM,> 50 µM,> 50 µM,> 50 µM,–,> 50 µM,> 50 µM,> 50 µM,> 50 µM,> 50 µM,> 50 µM,> 50 µM,17 µM,–,> 50 µM,> 50 µM,–,–,> 50 µM,> 50 µM
CN(C)c1ccc(/C=C2\CCc3ccccc3C2=O)cc1Br,> 100 µM,> 100 µM,–,–,> 100 µM,> 100 µM,> 100 µM,> 100 µM,> 100 µM,–,–,–,–,–,–,–,–,–,–,–
Nc1ccccc1C(=O)/C=C/c1ccccc1O,> 100 µM,> 100 µM,> 100 µM,> 100 µM,–,> 100 µM,> 100 µM,> 100 µM,81.6 µM,–,–,–,–,–,–,–,–,–,–,–
COC(=O)C1CC(=O)O[C@H]1c1ccc(OC)c(OC)c1 (stereo partly specified),> 100 µM,> 100 µM,> 100 µM,> 100 µM,> 100 µM,> 100 µM,> 100 µM,> 100 µM,> 100 µM,–,–,–,–,–,–,–,–,–,–,–
CN(C)c1ccc(/C=c2/sc3nc(=O)c(-c4ccccc4NC(=O)C(F)(F)F)nn3c2=O)cc1,> 100 µM,> 100 µM,–,> 100 µM,–,> 100 µM,> 100 µM,> 100 µM,> 100 µM,–,–,–,–,–,–,–,–,–,–,–
O/N=C1/C(=C/c2ccc(OCc3ccccc3)cc2)CCCC1C(NO)c1ccc(OCc2ccccc2)cc1 (stereo unspecified),> 100 µM,> 100 µM,> 100 µM,> 100 µM,> 100 µM,> 100 µM,> 100 µM,73.8 µM,63.5 µM,–,–,–,–,–,–,–,–,–,–,–
CC(=O)NC(CCCNC(=O)OCc1ccccc1)C(=O)NCc1ccccc1 (stereo unspecified),> 100 µM,> 100 µM,> 100 µM,> 100 µM,> 100 µM,> 100 µM,> 100 µM,> 100 µM,> 100 µM,–,–,–,–,–,–,–,–,–,–,–
CN(C)[C@@H]1C(=O)C(C(=O)NCc2nc3[nH]cnc(=S)c3[nH]2)=C(O)[C@@]2(O)C(=O)C3=C(O)c4c(O)cccc4[C@@](C)(O)[C@H]3C[C@@H]12,> 100 µM,> 100 µM,> 100 µM,> 100 µM,> 100 µM,> 100 µM,> 100 µM,> 100 µM,–,8.45 µM,> 100 µM,16 µM,–,5.66 µM,5.09 µM,3 µM,> 100 µM,> 100 µM,> 100 µM,> 100 µM
O=[N+]([O-])c1ccc(/C=C/c2ccc(/C=C/c3ccc([N+](=O)[O-])cc3[N+](=O)[O-])cc2)c([N+](=O)[O-])c1,> 100 µM,> 100 µM,> 100 µM,> 100 µM,> 100 µM,> 100 µM,> 100 µM,> 100 µM,–,–,–,–,–,–,–,–,–,–,–,–
